Experiment: Radiochemical purity by iTLC over time after radiolabelling
Format: physicochemical
Description: Table 1 to Table 5 show the results of various radiolabelling experiments on radiochemical purity and the chelation yield. The radiolabelling experiments in the tables are carried out as described in: • Example 1 for when the gallium-68 source is GE Liquid target generator and EZAG GalliaPharm generator; • Example 2 for when the gallium-68 source is IRE Galli Eo generator; • Example 3 for when the gallium-68 source is GE solid target generator;
However, the experiments were carried out with the amount of ascorbic acid as indicated in the Tables 1 to 5, and the activity as indicated in the Tables 1 to 5. Radiochemical purities were measured at various times (T0, T1, T4, T6) after the radiolabelled experiments have been conducted.
The kits of Example 1, Example 2 or Example 3, with amounts of ascorbic acid as set out in Table 7 were used in the experiments for the ascorbic acid bracketing matrix. Three strengths of [^68Ga]Ga-PSMA-11 will be tested, i.e. 50 mCi/ml, 7 mCi/ml and 1 mCi/ml. Radiochemical purity was determined at different time points (TO, T1, T4 or T6), as set out in Table 7.

[1] = 1 mg ascorbic acid, 58.7-71.1 mCi, 7.47-8.99 mCi/mL, GE Liquid target, average of 3, T0
[2] = 1 mg ascorbic acid, 58.7-71.1 mCi, 7.47-8.99 mCi/mL, GE Liquid target, average of 3, T4 (4 h)
[3] = 1 mg ascorbic acid, 58.7-71.1 mCi, 7.47-8.99 mCi/mL, GE Liquid target, n=3, T0
[4] = 1 mg ascorbic acid, 58.7-71.1 mCi, 7.47-8.99 mCi/mL, GE Liquid target, n=3, T4 (4 h)
[5] = 2.5 mg ascorbic acid, 49.9-76.9 mCi, 6.31-9.72 mCi/mL, GE Liquid target, average of 3, T0
[6] = 2.5 mg ascorbic acid, 49.9-76.9 mCi, 6.31-9.72 mCi/mL, GE Liquid target, average of 3, T4 (4 h)
[7] = 2.5 mg ascorbic acid, 49.9-76.9 mCi, 6.31-9.72 mCi/mL, GE Liquid target, n=3, T0
[8] = 2.5 mg ascorbic acid, 49.9-76.9 mCi, 6.31-9.72 mCi/mL, GE Liquid target, n=3, T4 (4 h)
[9] = 5 mg ascorbic acid, 60-69.9 mCi, 7.61-8.81 mCi/mL, 3 × GE Liquid Target, 3 × EZAG GalliaPharm, average of 6, T0
[10] = 5 mg ascorbic acid, 60-69.9 mCi, 7.61-8.81 mCi/mL, 3 × GE Liquid Target, 3 × EZAG GalliaPharm, average of 6, T4 (4 h)
[11] = 5 mg ascorbic acid, 60-69.9 mCi, 7.61-8.81 mCi/mL, 3 × GE Liquid Target, 3 × EZAG GalliaPharm, n=6, T0
[12] = 5 mg ascorbic acid, 60-69.9 mCi, 7.61-8.81 mCi/mL, 3 × GE Liquid Target, 3 × EZAG GalliaPharm, n=6, T4 (4 h)
[13] = 10 mg ascorbic acid, 458-500 mCi, 43.4-47.3 mCi/mL, GE Solid Target, average of 3, T0
[14] = 10 mg ascorbic acid, 458-500 mCi, 43.4-47.3 mCi/mL, GE Solid Target, average of 3, T4 (4 h)
[15] = 10 mg ascorbic acid, 458-500 mCi, 43.4-47.3 mCi/mL, GE Solid Target, n=3, T0
[16] = 10 mg ascorbic acid, 458-500 mCi, 43.4-47.3 mCi/mL, GE Solid Target, n=3, T4 (4 h)
[17] = 10 mg ascorbic acid, 514-520 mCi, 49.0-66.1 mCi/mL, GE Solid Target, average of 3, T0
[18] = 10 mg ascorbic acid, 514-520 mCi, 49.0-66.1 mCi/mL, GE Solid Target, average of 3, T6 (6 h)
[19] = 10 mg ascorbic acid, 514-520 mCi, 49.0-66.1 mCi/mL, GE Solid Target, n=3, T0
[20] = 10 mg ascorbic acid, 514-520 mCi, 49.0-66.1 mCi/mL, GE Solid Target, n=3, T6 (6 h)

## O=C([O-])CN(CCN(CC(=O)[O-])Cc1cc(CCC(=O)NCCCCCC(=O)NCCCC[C@H](NC(=O)N[C@@H](CCC(=O)O)C(=O)O)C(=O)O)ccc1[O-])Cc1cc(CCC(=O)O)ccc1[O-].[68Ga+3].[OH3+] [[^68Ga]PSMA-11, gallium-68 radiolabelled Glu-urea-Lys-HBED-CC (gozetotide or PSMA-11)]
[1]
  Radiochemical Purity (iTLC) Free and Colloidal Ga-68 (%): 0%
  Radiochemical Purity (iTLC) Ga-68 PSMA-11 (%): 100%
[2]
  Radiochemical Purity (iTLC) Free and Colloidal Ga-68 (%): 0%
  Radiochemical Purity (iTLC) Ga-68 PSMA-11 (%): 100%
[3]
  Radiochemical Purity (iTLC) Free and Colloidal Ga-68 (%): C (C = conforms to specifications)
  Radiochemical Purity (iTLC) Ga-68 PSMA-11 (%): C (C = conforms to specifications)
[4]
  Radiochemical Purity (iTLC) Free and Colloidal Ga-68 (%): C (C = conforms to specifications)
  Radiochemical Purity (iTLC) Ga-68 PSMA-11 (%): C (C = conforms to specifications)
[5]
  Radiochemical Purity (iTLC) Free and Colloidal Ga-68 (%): 0%
  Radiochemical Purity (iTLC) Ga-68 PSMA-11 (%): 100%
[6]
  Radiochemical Purity (iTLC) Free and Colloidal Ga-68 (%): 0%
  Radiochemical Purity (iTLC) Ga-68 PSMA-11 (%): 100%
[7]
  Radiochemical Purity (iTLC) Free and Colloidal Ga-68 (%): C (C = conforms to specifications)
  Radiochemical Purity (iTLC) Ga-68 PSMA-11 (%): C (C = conforms to specifications)
[8]
  Radiochemical Purity (iTLC) Free and Colloidal Ga-68 (%): C (C = conforms to specifications)
  Radiochemical Purity (iTLC) Ga-68 PSMA-11 (%): C (C = conforms to specifications)
[9]
  Radiochemical Purity (iTLC) Free and Colloidal Ga-68 (%): 0%
  Radiochemical Purity (iTLC) Ga-68 PSMA-11 (%): 100%
[10]
  Radiochemical Purity (iTLC) Free and Colloidal Ga-68 (%): 0%
  Radiochemical Purity (iTLC) Ga-68 PSMA-11 (%): 100%
[11]
  Radiochemical Purity (iTLC) Free and Colloidal Ga-68 (%): C (C = conforms to specifications)
  Radiochemical Purity (iTLC) Ga-68 PSMA-11 (%): C (C = conforms to specifications)
[12]
  Radiochemical Purity (iTLC) Free and Colloidal Ga-68 (%): C (C = conforms to specifications)
  Radiochemical Purity (iTLC) Ga-68 PSMA-11 (%): C (C = conforms to specifications)
[13]
  Radiochemical Purity (iTLC) Free and Colloidal Ga-68 (%): 0%
  Radiochemical Purity (iTLC) Ga-68 PSMA-11 (%): 100%
[14]
  Radiochemical Purity (iTLC) Free and Colloidal Ga-68 (%): 0%
  Radiochemical Purity (iTLC) Ga-68 PSMA-11 (%): 100%
[15]
  Radiochemical Purity (iTLC) Free and Colloidal Ga-68 (%): C (C = conforms to specifications)
  Radiochemical Purity (iTLC) Ga-68 PSMA-11 (%): C (C = conforms to specifications)
[16]
  Radiochemical Purity (iTLC) Free and Colloidal Ga-68 (%): C (C = conforms to specifications)
  Radiochemical Purity (iTLC) Ga-68 PSMA-11 (%): C (C = conforms to specifications)
[17]
  Radiochemical Purity (iTLC) Free and Colloidal Ga-68 (%): 0%
  Radiochemical Purity (iTLC) Ga-68 PSMA-11 (%): 100%
[18]
  Radiochemical Purity (iTLC) Free and Colloidal Ga-68 (%): 0%
  Radiochemical Purity (iTLC) Ga-68 PSMA-11 (%): 100%
[19]
  Radiochemical Purity (iTLC) Free and Colloidal Ga-68 (%): C (C = conforms to specifications)
  Radiochemical Purity (iTLC) Ga-68 PSMA-11 (%): C (C = conforms to specifications)
[20]
  Radiochemical Purity (iTLC) Free and Colloidal Ga-68 (%): C (C = conforms to specifications)
  Radiochemical Purity (iTLC) Ga-68 PSMA-11 (%): C (C = conforms to specifications)
15 mg ascorbic acid, 10.0-18.4 mCi, 0.95-1.77 mCi/mL, 1 × EZAG GalliaPharm, 2 × IRE Galli Eo, average of 3, T0
  Radiochemical Purity (iTLC) Free and Colloidal Ga-68 (%): 0%
